What was measured:
[1] = Kinetics of NAF enantiomer glucuronidation by human liver microsomes; assay type: in vitro ADME; details: human, human liver microsomes, pH 7.5; NAF glucuronidation by HLM; 2.5–80 μM substrate, 45 min
Experimental: (§1) All glucuronidation assays were conducted in an incubation volume of 200 μL. Incubations were performed at 37°C in 50 mM Tris–HCl buffer (pH 7.5) with 10 mM magnesium chloride, 1 mg protein/mL of enzyme (microsomes and recombinant human UGTs), alamethicin (100 μg of alamethicin/mg microsomal protein), and NAF enantiomers (2.5–80 μM). The reaction was initiated by the addition of UDPGA (5 mM) and incubated at 37°C in a shaking water bath for 45 min. The reaction was terminated by the addition of 200 μL of ice-cold acetonitrile containing the IS (1 μM) and then centrifuged at 5000 ×g for 10 min at 4°C. The supernatant fraction was injected into the RRLC-MS/MS apparatus. Protein concentration (0.5–2 mg/mL) and incubation time (15–180 min) were optimized in preliminary studies to be within initial linear rate conditions.
(§2) Kinetic parameters were assessed in the HLM, RLM, HKM, RKM, and recombinant human UGTs (UGT2B4, 2B7, and 1A9).

[2] = tested on: human liver microsomes (HLM); test: as above; assay type: in vitro ADME
Experimental: as §1, §2

UGT2B15 = molecular target: T1, UGT2B15 (Homo sapiens, UniProt P54855); test: Inhibition screening of recombinant UGTs by NAF enantiomers, UGT2B15 (4-MU); assay type: in vitro ADME; details: recombinant UGT2B15, probe 4-MU, 100 μM NAF enantiomer, read-out: Inhibition of 4-MU-G formation
T1 construct: purchased BD Gentest
T1 sequence (P54855 24-530): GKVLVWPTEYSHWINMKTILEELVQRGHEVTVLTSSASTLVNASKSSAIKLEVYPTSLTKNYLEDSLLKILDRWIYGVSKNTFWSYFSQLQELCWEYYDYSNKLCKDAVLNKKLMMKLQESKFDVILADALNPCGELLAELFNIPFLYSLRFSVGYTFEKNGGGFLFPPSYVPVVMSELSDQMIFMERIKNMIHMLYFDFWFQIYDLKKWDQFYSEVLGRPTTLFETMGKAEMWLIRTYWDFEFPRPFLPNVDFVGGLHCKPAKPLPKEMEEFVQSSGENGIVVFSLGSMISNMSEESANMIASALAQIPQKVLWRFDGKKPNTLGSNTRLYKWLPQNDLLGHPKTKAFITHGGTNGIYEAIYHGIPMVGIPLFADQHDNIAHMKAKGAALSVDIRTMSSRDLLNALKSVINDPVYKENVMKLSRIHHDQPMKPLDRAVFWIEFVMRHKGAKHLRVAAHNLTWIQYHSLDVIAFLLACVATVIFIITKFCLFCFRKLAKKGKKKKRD
Experimental: (§3) The inhibition screening study was performed by investigating the 12 recombinant UGTs with 10 and 100 μM NAF enantiomer. […] 4-MU, as a non-specific substrate, was added to the other incubated samples. Instead of NAF enantiomers, the same volume of water was added to be the control sample. […] The formation of 4-MU-G and TFP-G produced from the 12 incubation system were analyzed by HPLC. The instrument parameters for the LC were as follows: system, Agilent 1260; Agilent Eclipse Plus C18 (2.1 mm × 50 mm, 1.8 μm, Santa Clara, CA, United States); mobile phase, methanol: 0.1% formic acid in water (0–3 min, 35:65; 3.1–4.5 min, 65:35; 4.6–5 min, 35:65); flow rate, 0.4 mL/min; column temperature, 25°C; and injection volume, 2 μL. The retention times of 4-MU, 4-MU-G, TFP, TFP-G, and MU (IS) were 1.5, 0.5, 2.2, 1.8, and 1.0 min, respectively.

UGT2B17 = molecular target: T2, UGT2B17 (Homo sapiens, UniProt O75795); test: Inhibition screening of recombinant UGTs by NAF enantiomers, UGT2B17 (4-MU); assay type: in vitro ADME; details: recombinant UGT2B17, probe 4-MU, 100 μM NAF enantiomer, read-out: Inhibition of 4-MU-G formation
T2 construct: purchased BD Gentest
T2 sequence (O75795 24-530): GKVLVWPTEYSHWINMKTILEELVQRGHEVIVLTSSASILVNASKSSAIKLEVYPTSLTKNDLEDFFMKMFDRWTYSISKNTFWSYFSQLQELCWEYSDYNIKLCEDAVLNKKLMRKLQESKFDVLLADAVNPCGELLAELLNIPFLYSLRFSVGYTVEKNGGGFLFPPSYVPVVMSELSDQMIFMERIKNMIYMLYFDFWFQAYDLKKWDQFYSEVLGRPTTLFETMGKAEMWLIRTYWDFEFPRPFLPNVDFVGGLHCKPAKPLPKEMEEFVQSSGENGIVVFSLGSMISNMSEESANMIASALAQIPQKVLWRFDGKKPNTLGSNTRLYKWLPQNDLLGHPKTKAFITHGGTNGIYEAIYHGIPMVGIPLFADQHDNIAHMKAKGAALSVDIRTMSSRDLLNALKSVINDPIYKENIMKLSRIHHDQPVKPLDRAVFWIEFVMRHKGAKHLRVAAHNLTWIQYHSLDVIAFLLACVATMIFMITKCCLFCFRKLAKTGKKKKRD
Experimental: as §3

UGT2B7 [3] = molecular target: T3, UGT2B7 (Homo sapiens, UniProt P16662); details: substrate zidovudine, enzyme UGT2B7
T3 sequence (P16662 24-529): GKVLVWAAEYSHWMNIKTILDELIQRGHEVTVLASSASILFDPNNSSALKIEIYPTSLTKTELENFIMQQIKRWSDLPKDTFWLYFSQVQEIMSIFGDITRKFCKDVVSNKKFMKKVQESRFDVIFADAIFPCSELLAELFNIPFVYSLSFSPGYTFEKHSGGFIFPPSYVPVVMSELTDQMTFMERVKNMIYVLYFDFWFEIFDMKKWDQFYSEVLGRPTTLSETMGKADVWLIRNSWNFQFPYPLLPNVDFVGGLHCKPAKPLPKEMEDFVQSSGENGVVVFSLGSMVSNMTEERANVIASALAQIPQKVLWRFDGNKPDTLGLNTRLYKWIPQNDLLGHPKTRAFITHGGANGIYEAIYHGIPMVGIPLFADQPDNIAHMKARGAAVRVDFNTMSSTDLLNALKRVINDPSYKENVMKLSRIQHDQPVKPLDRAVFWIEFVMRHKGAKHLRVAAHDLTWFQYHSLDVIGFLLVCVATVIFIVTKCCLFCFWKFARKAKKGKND
Experimental: The inhibition of UGT1A9 and UGT2B7 by NAF enantiomer was investigated using the pooled HLM, UGT1A9, and UGT2B7 with concentrations similar to that of the NAF enantiomer. Propofol, which was used as the specific substrate of UGT1A9, was added to the incubation. […] Inhibitor constants (Ki value) were estimated by fitting the expressions for competitive, non-competitive, and mixed inhibition models with Dixon plots and Lineweaver–Burk plots.

UGT2B7 [4] = molecular target: T3, UGT2B7; test: Kinetics of NAF enantiomer glucuronidation by recombinant UGT2B7; assay type: in vitro ADME; set-up: purchased BD Gentest
Experimental: as §1, §2

UGT2B7 [5] = molecular target: T3, UGT2B7; test: Inhibition screening of recombinant UGTs by NAF enantiomers, UGT2B7 (4-MU); assay type: in vitro ADME; set-up: purchased BD Gentest; details: recombinant UGT2B7, probe 4-MU, read-out: Inhibition of 4-MU-G formation; for inhibition at 10 μM: 10 μM NAF enantiomer; for inhibition at 100 μM: 100 μM NAF enantiomer
Experimental: as §3

Km at 45 min [1] [µM] | inhibition at 100 μM (UGT2B15) [%] | inhibition at 100 μM (UGT2B17) [%] | Inhibition type (UGT2B7 [3]) | Kinetics type (UGT2B7 [4]) | inhibition at 10 μM (UGT2B7 [5]) [%] | inhibition at 100 μM (UGT2B7 [5]) [%] | Structure (SMILES) | Kinetics type [2]
48 | > 75 | > 75 | Competitive | substrate inhibition model | > 50 | > 75 | COc1ccccc1N1CCN(C[C@@H](O)COc2cccc3ccccc23)CC1 [R(+)-NAF] | Michaelis–Menten model
19 | > 75 | > 75 | Competitive | substrate inhibition model | > 50 | > 75 | COc1ccccc1N1CCN(C[C@H](O)COc2cccc3ccccc23)CC1 [S(-)-NAF] | Michaelis–Menten model

Reference: article PMC5769128, “Human UDP-Glucuronosyltransferase 2B4 and 2B7 Are Responsible for Naftopidil Glucuronidation in Vitro” (Frontiers in Pharmacology, 2018)
